In ChEMBL document CHEMBL4152347 (J Med Chem, 2018):
Converted amounts (≈) assume the structure as drawn.

How the values were obtained:
[1] = system: Human immunodeficiency virus 1; assay: microbe, parasite or virus in culture
Description: Antiviral activity against HIV1 expressing gag A364V mutant

[2] = system: Salmonella typhimurium; assay: Mutagenicity in Salmonella typhimurium TA98 in presence of Aroclor 1254-induced rat liver S9 fraction at up to 1600 ug/plate; format: toxicity, organism-based; details: salmonella enterica subsp. enterica serovar typhimurium
[3] = AUC (0 to infinity) in cynomolgus monkey at 5 mg/kg, po administered via gavage; format: ADME, organism-based, Macaca fascicularis; design: dose 5 mg/kg, route oral, time infinity; details: in vivo
[4] = target: Gag-Pol polyprotein (Human immunodeficiency virus type 1 group M subtype B (isolate HXB2)(HIV-1), UniProt P04585, V370A)
[5] = Volume of distribution at steady state in cynomolgus monkey at 1 mg/kg, iv; format: ADME, organism-based, Macaca fascicularis; details: in vivo, read-out: Vdss
[6] = system: Canis familiaris; assay: Half life in beagle dog at 1 mg/kg, iv; format: ADME, organism-based, Canis lupus familiaris; details: in vivo
[7] = Half life in mouse liver microsomes at 0.5 uM after 1 hr in presence of NADPH by LC-MS/MS analysis; format: ADME, microsome
[8] = system: Salmonella typhimurium; assay: Mutagenicity in Salmonella typhimurium TA100 in presence of Aroclor 1254-induced rat liver S9 fraction at up to 1600 ug/plate; format: toxicity, organism-based; details: salmonella enterica subsp. enterica serovar typhimurium
[9] = Solubility of compound in fasted state simulated intestinal fluid at pH 6.5; format: physicochemical
[10] = AUC (0 to infinity) in CD1 mouse at 5 mg/kg, po administered via gavage; format: ADME, organism-based; design: dose 5 mg/kg, time infinity, route oral; details: in vivo
[11] = Oral bioavailability in cynomolgus monkey at 5 mg/kg administered via gavage; format: ADME, organism-based, Macaca fascicularis; details: in vivo
[12] = Bioavailability in Sprague-Dawley rat at 5 mg/kg, id; format: ADME, organism-based; details: in vivo
[13] = Half life in rat hepatocytes at 0.5 uM after 1 hr in presence of NADPH by LC-MS/MS analysis; format: ADME, cell-based, Hepatocyte
[14] = target: Human immunodeficiency virus type 1 Gag protein (Human immunodeficiency virus 1) (UniProt Q77YG1)
Description: Binding affinity to wild type HIV1 gag polyprotein containing viral like particle assessed as dissociation half life

[15] = Cmax in beagle dog at 5 mg/kg, po administered via gavage as microsuspension pre-treated with 6 ug/kg, im pentagastrin 15 to 30 mins before compound dosing; format: ADME, organism-based, Canis lupus familiaris; details: in vivo
[16] = Cmax in beagle dog at 5 mg/kg, po administered via gavage as solution; format: ADME, organism-based, Canis lupus familiaris; design: dose 5 mg/kg, route oral; details: in vivo
[17] = system: Canis familiaris; assay: AUC (0 to infinity) in beagle dog at 5 mg/kg, po administered via gavage as microsuspension along with high fat meal; format: ADME, organism-based, Canis lupus familiaris; design: dose 5 mg/kg, time infinity, route oral; details: in vivo
[18] = in vivo; details: Sprague-Dawley, rat, po, 5 mg/kg
[19] = Protein binding in rat serum at 53 nM after 1 hr by ultracentrifugation assay; format: ADME, cell-free; details: read-out: PB (converted)
[20] = Tmax in Sprague-Dawley rat at 5 mg/kg, id; format: ADME, organism-based; details: in vivo
[21] = Total plasma clearance in cynomolgus monkey at 1 mg/kg, iv; format: ADME, organism-based, Macaca fascicularis
[22] = target: Gag-Pol polyprotein (Human immunodeficiency virus type 1 group M subtype B (isolate HXB2)(HIV-1), UniProt P04585)
Description: Binding affinity to HIV1 gag polyprotein delta V370 mutant containing viral like particle

[23] = Half life in dog liver microsomes at 0.5 uM after 1 hr in presence of NADPH by LC-MS/MS analysis; format: ADME, Canis lupus familiaris, microsome
[24] = Total plasma clearance in Sprague-Dawley rat at 1 mg/kg, iv; format: ADME, organism-based
[25] = Oral bioavailability in MDR1 a/b knockout mouse at 5 mg/kg administered via gavage; format: ADME, organism-based; details: in vivo
[26] = Tmax in CD1 mouse at 5 mg/kg, po administered via gavage; format: ADME, organism-based; details: in vivo
[27] = target: Gag-Pol polyprotein (Human immunodeficiency virus type 1 group M subtype B (isolate HXB2)(HIV-1), UniProt P04585, V362I)
[28] = in vivo; details: Sprague-Dawley, rat, po, 5 mg/kg; remark: listed apart in the source
[29] = Half life in human hepatocytes at 0.5 uM after 1 hr in presence of NADPH by LC-MS/MS analysis; format: ADME, cell-based, Hepatocyte
[30] = Cmax in CD1 mouse at 5 mg/kg, po administered via gavage; format: ADME, organism-based; design: dose 5 mg/kg, route oral; details: in vivo
[31] = AUC (0 to infinity) in Sprague-Dawley rat at 5 mg/kg, po; format: ADME, organism-based; design: dose 5 mg/kg, time infinity, route oral; details: in vivo
[32] = system: Canis familiaris; assay: Tmax in beagle dog at 1 mg/kg, iv; format: ADME, organism-based, Canis lupus familiaris; details: in vivo
[33] = Half life in mouse hepatocytes at 0.5 uM after 1 hr in presence of NADPH by LC-MS/MS analysis; format: ADME, cell-based, Hepatocyte
[34] = Protein binding in cynomolgus monkey serum at 53 nM after 1 hr by ultracentrifugation assay; format: ADME, cell-free, Macaca fascicularis; details: read-out: PB (converted)
[35] = system: Gag-Pol polyprotein (Human immunodeficiency virus type 1 group M subtype B (isolate HXB2)(HIV-1)), P04585 [V370A]; details: Human immunodeficiency virus 1
[36] = Tmax in cynomolgus monkey at 5 mg/kg, po administered via gavage; format: ADME, organism-based, Macaca fascicularis; details: in vivo
[37] = Cmax in beagle dog at 5 mg/kg, po administered via gavage as microsuspension pre-treated with 40 mg famotidine in capsule form 1 hr before compound dosing; format: ADME, organism-based, Canis lupus familiaris; design: dose 5 mg/kg, route oral; details: in vivo
[38] = Tmax in beagle dog at 5 mg/kg, po administered via gavage as microsuspension along with high fat meal; format: ADME, organism-based, Canis lupus familiaris; details: in vivo
[39] = Cmax in Sprague-Dawley rat at 5 mg/kg, po treated with 10 mg/kg elacridar immediately after compound dosing; format: ADME, organism-based; design: dose 5 mg/kg, route oral; details: in vivo, with elacridar 10 mg/kg
[40] = Oral bioavailability in beagle dog at 5 mg/kg administered via gavage as microsuspension pre-treated with 40 mg famotidine in capsule form 1 hr before compound dosing; format: ADME, organism-based, Canis lupus familiaris; details: in vivo
[41] = AUC (0 to infinity) in Sprague-Dawley rat at 5 mg/kg, id; format: ADME, organism-based; design: dose 5 mg/kg, time infinity; details: in vivo
[42] = AUC (0 to infinity) in CD1 mouse at 1 mg/kg, iv; format: ADME, organism-based; design: dose 1 mg/kg, route intravenous, time infinity; details: in vivo
[43] = Tmax in beagle dog at 5 mg/kg, po administered via gavage as microsuspension pre-treated with 6 ug/kg, im pentagastrin 15 to 30 mins before compound dosing; format: ADME, organism-based, Canis lupus familiaris; details: in vivo
[44] = Cmax in Sprague-Dawley rat at 5 mg/kg, id; format: ADME, organism-based; design: dose 5 mg/kg; details: in vivo
[45] = target: Human immunodeficiency virus type 1 Gag protein (Human immunodeficiency virus 1, UniProt Q77YG1)
Description: Binding affinity to wild type HIV1 gag polyprotein containing viral like particle

[46] = target: Gag-Pol polyprotein (Human immunodeficiency virus type 1 group M subtype B (isolate HXB2)(HIV-1)) (UniProt P04585); details: Human immunodeficiency virus 1
Description: Binding affinity to HIV1 gag polyprotein delta V370 mutant containing viral like particle assessed as dissociation half life

[47] = target: Cytochrome P450 3A4 (Homo sapiens, UniProt P08684); assay: Drug metabolism assessed as recombinant CYP3A4 (unknown origin)-mediated oxidative metabolism; format: ADME; details: recombinant enzyme
[48] = system: Salmonella typhimurium; assay: Mutagenicity in Salmonella typhimurium TA100 in absence of Aroclor 1254-induced rat liver S9 fraction at up to 1600 ug/plate; format: toxicity, organism-based; details: salmonella enterica subsp. enterica serovar typhimurium
[49] = AUC (0 to infinity) in cynomolgus monkey at 1 mg/kg, iv; format: ADME, organism-based, Macaca fascicularis; design: dose 1 mg/kg, time infinity, route intravenous; details: in vivo
[50] = Tmax in beagle dog at 5 mg/kg, po administered via gavage as microsuspension pre-treated with 40 mg famotidine in capsule form 1 hr before compound dosing; format: ADME, organism-based, Canis lupus familiaris; details: in vivo

Chain of Cytochrome P450 3A4 (P08684 whole entry): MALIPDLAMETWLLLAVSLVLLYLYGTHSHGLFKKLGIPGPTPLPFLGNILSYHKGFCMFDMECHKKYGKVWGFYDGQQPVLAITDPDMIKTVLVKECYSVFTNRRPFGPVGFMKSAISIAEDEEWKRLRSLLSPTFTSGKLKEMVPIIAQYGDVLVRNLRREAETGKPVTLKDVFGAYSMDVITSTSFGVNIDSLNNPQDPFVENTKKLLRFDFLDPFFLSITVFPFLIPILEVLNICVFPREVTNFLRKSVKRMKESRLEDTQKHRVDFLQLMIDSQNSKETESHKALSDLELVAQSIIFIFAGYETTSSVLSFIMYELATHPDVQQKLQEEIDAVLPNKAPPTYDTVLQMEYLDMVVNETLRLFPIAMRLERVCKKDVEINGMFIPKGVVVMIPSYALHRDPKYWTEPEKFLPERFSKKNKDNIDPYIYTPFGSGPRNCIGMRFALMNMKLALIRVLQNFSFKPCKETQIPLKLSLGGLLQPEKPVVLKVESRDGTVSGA

C=C(C)[C@@H]1CC[C@]2(NCCN3CCS(=O)(=O)CC3)CC[C@]3(C)[C@H](CC[C@@H]4[C@@]5(C)CC=C(c6ccc(C(=O)O)cc6)C(C)(C)[C@@H]5CC[C@]43C)[C@@H]12 [BMS-955176]
EC50 [1]: 1480 nM | Activity [2]: Non-Toxic | AUC(0-inf) [3]: 1 µM·h | Kd [4]: 6.5 nM | Vd [5]: 0.43 L/kg | t1/2 [6]: 7.8 min | half-life at 0.5 µM [7]: > 2 h | Activity [8]: Non-Toxic | solubility [9]: 280 µg/mL (≈ 405 µM) | AUC(0-inf) [10]: 28.9 µM·h | bioavailability [11]: 4% | bioavailability [12]: 36% | half-life at 0.5 µM [13]: > 2 h | T1/2 [14]: 0.683 h | Cmax [15]: 4430 nM | Cmax [16]: 560 nM | AUC [17]: 643 µM·h | AUC(0-t) at 24 h [18]: 14.2 µM·h | fraction unbound at 1 h, 0.053 µM [19]: 0.141 | Tmax [20]: 1 h | clearance [21]: 1.9 mL/min/kg | Kd [22]: 33.6 nM | half-life at 0.5 µM [23]: > 2 h | clearance [24]: 2.2 mL/min/kg | bioavailability [25]: 45% | Tmax [26]: 3 h | Kd [27]: 4.3 nM | AUC(0-t) at 6 h [28]: 4.13 µM·h | half-life at 0.5 µM [29]: > 2 h | Cmax [30]: 2790 nM | AUC(0-inf) [31]: 14.2 µM·h | Tmax [32]: 187 h | half-life at 0.5 µM [33]: > 2 h | fraction unbound at 1 h, 0.053 µM [34]: 0.216 | T1/2 [35]: 0.6 h | Tmax [36]: 3.3 h | Cmax [37]: 4040 nM | Tmax [38]: 10.5 h | Cmax [39]: 1800 nM | bioavailability [40]: 26% | AUC(0-inf) [41]: 19.9 µM·h | AUC(0-inf) [42]: 21.6 µM·h | Tmax [43]: 10.5 h | Cmax [44]: 1700 nM | Kd [45]: 3.2 nM | T1/2 [46]: 0.767 h | Drug metabolism [47]: Metabolite_Detected | Activity [48]: Non-Toxic | AUC(0-inf) [49]: 13.6 µM·h | Tmax [50]: 13.5 h
